These results are taken from the SangsterLogP compilation.

The term logP denotes a log measure of how a compound divides between an organic and an aqueous phase. Usually logD stands for the decadic logarithm of the distribution of all forms, ionised or not, between an organic phase and buffer at a given pH. A low value points to lower lipophilicity.

A short description of data set [1]: method code SF-AS, from DOI: 10.1021/jm00254a011, PMID: 4845376.
Data set [2] can be described thus: method code SF, from DOI: 10.1034/j.1399-3011.2003.00037.x, PMID: 12492901. Conditions: pH 2.0.
Data set [3] is described as follows: method code SF-GLC, from DOI: 10.1080/03086648508073361.
A short description of data set [4]: method code SF, from DOI: 10.1016/0360-3016(92)90876-j, PMID: 1735696. Conditions: pH 7.4.
Data set [5] is described as follows: method code SF-AS, from DOI: 10.1111/j.1440-1681.1976.tb00621.x, PMID: 10116.
Data set [6] in a line: method code SF-GLC, from Hermens, J., & De Bruijn, J. (1987). A QSAR study for fish toxicity data of organophosphorus compounds. QSAR in Drug Design and Toxicology, 10, 343-345.
The nature of data set [7]: method code SF-AS, from DOI: 10.1016/0006-2952(93)90433-w, PMID: 8494536. Conditions: pH 7.4.
The nature of data set [8]: method code SF-GLC, from DOI: 10.1021/je00020a050.
Data set [9] is described as follows: method code SF-AS, from DOI: 10.1016/0378-5173(82)90004-7. Conditions: pH 3.0.
Experiment in data set [10]: not given
The source holds these as a separate data set.

Data set [11] in a line: method code SF-RC, from Audran, M.; Chanal, J.; Berge, G.; Marignan, R. (1983). Binding-structure correlation of bovine serum albumin in a series of cresotinamides. International Journal of Pharmaceutics, 15(3)273-284. To be noted: pH 1.0.
Experiment in data set [12]: not given
This is another data set of the same source.

A short description of data set [13]: from Bazaco, J.; Coca, C. (1989). Relation between the partition coefficient (Log Pow) and capacity factor (Log k') derived from reversed-phase HPLC of a series of benzaldehyde derivatives. Ciencia e ….
Experiment in data set [14]: not given
This is another data set of the same source.

Data set [15] in a line: method code SF-AS, from DOI: 10.1002/1521-3838(200111)20:4<291::aid-qsar291>3.0.co;2-q.
Data set [16] can be described thus: method code SF-HPLC, from DOI: 10.1016/0378-5173(85)90010-9. Conditions: pH 4.0.
A short description of data set [17]: from Dutta, H.; Mehta, N.; SenGupta, M.; Pal, D.; Sengupta, C.; De, A. (1988). Dioxanide furoate: studies on its interaction with blood phospholipid in relation to partition coefficients of related drugs. ….
A short description of data set [18]: method code SF, from DOI: 10.1016/0360-3016(86)90226-9, PMID: 3744928. Conditions: pH 7.4.
Data set [19] in a line: method code SF, from Dai, J-Y.; Han, S.; Wang, L. (2000). Prediction of partition properties of substituted benzaldehydes using different structural parameters. Zhongguo Huanjing Kexue (China Environmental Science), ….
A short description of data set [20]: method code SF, from DOI: 10.1021/jm00378a018, PMID: 6389865. To be noted: pH 7.0.
The nature of data set [21]: method code G-HPLC, from DOI: 10.6028/nbs.ir.81-2406.
Data set [22] can be described thus: method code SF, from DOI: 10.1111/j.2042-7158.1971.tb08772.x, PMID: 4401532. To be noted: pH 7.2.
Data set [23] in a line: method code SF-AS, from DOI: 10.1021/j150653a049.
Experiment in data set [24]: not given
This is another data set of the same source.

Data set [25] in a line: method code SF-HPLC, from DOI: 10.1016/0378-5173(82)90005-9. Conditions: pH 3.0.
Data set [26] can be described thus: method code SF-AS, from DOI: 10.1248/cpb.35.377.

Compound `O=C(O)Cc1ccc(F)cc1` showed a lipophilicity (logP) of 1.6.
Turning to `CC(C)NC(=O)C=Cc1ncc([N+](=O)[O-])s1`, the logP in data set [1] stood at 1.76.
As for `O=C(O)c1cc([N+](=O)[O-])cc([N+](=O)[O-])c1`, the log distribution coefficient (logD) in [2] is 1.75.
`CCN(CC)P(=O)(N(C)C)N(C)C` came in with a logP in data set [3] of 0.66.
Take `CONC(=O)CCCn1ccnc1[N+](=O)[O-]`: the logD in data set [4] is -0.74.
The same measure, in the same setting: the result for `CN(O)C(=O)Cn1ccnc1[N+](=O)[O-]` reads -0.74.
Compound `CCC(Br)(CC)C(=O)NC(N)=O` gave a logP in data set [5] of 1.54.
Regarding `COP(=S)(OC)Oc1ccc(SC)cc1`, the logP in data set [6] is 3.64.
The compound `NS(=O)(=O)c1cccc2ccccc12` gave a logD in data set [7] of 1.55.
In data set [8], `COc1ccc(Cl)c(Cl)c1Cl` gave a logP of 4.03.
`CC(C)=CCC1(C(C)(C)C)C(=O)NC(=O)NC1=O`: in data set [9], the logD was determined as 2.56.
Consider `CCN(CC)P(=O)(N(CC)CC)N1CCCC1`, for which the log partition coefficient (logP) in [3] worked out at 2.39.
In data set [10], `CCCCC(O)CCC` (centres undefined) returned a logP of 2.68.
For the compound `CC(=O)N[C@@H](Cc1c[nH]c2ccccc12)C(=O)O`, the logD in data set [2] was determined as 0.57.
Regarding `CCNC(=O)c1cc(Br)cc(C)c1O`, in data set [11], the pH-dependent lipophilicity (logD) was 3.61.
In turn, `O=[N+]([O-])c1ccc(Oc2ccccc2)cc1` yielded a lipophilicity (logP) in data set [12] of 3.79.
The compound `O=C(O)Cc1cc(Cl)c(Cl)cc1Cl` showed a logP of 3.6.
Take `CCOc1cc(C=O)ccc1O`: the logP in [13] was 1.58.
In the case of `COc1cc(Cl)c(Cl)c(Cl)c1OC`, the lipophilicity (logP) in [8] was 4.01.
In data set [14], `CCc1cc(CC)c(OC)c(C(=O)O)c1OC` showed a logP of 2.98.
As to `Nc1ccc(-c2n[nH]c(=S)o2)cc1`, the logP in data set [15] came out at 2.03.
In [5], `CC(C)C(Br)C(=O)NC(N)=O` (centres undefined) registered a logP of 1.14.
For the compound `CC(=O)c1ccc([N+](=O)[O-])cc1`, the logP in data set [12] worked out at 1.61.
Compound `c1ccc(N(c2ccccc2)c2ccccc2)cc1` registered a logP in data set [12] of 5.22.
Turning to `O=C(CCCn1ccnc1[N+](=O)[O-])NO`, the logD in data set [4] was -1.11.
On to `CN(C)C(=O)n1cc(F)c(=O)[nH]c1=O`, for which, in data set [16], the pH-dependent lipophilicity (logD) is -0.37.
In data set [17], `CN(C(=O)C(Cl)Cl)c1ccc(OC(=O)c2ccccc2)cc1` returned a log partition coefficient (logP) of 2.56.
On to `O=[N+]([O-])c1ncn(CC(O)CN2CC2)n1` (centres undefined), for which, in data set [18], the logD is -0.72.
The compound `COc1ccc(-c2n[nH]c(=S)o2)cc1` came in with a log partition coefficient (logP) in data set [15] of 3.
Take `O=C(O)CNc1ccc([N+](=O)[O-])cc1[N+](=O)[O-]`: the logD in data set [2] was 1.56.
Take `CCCCNC(=O)n1cc(F)c(=O)[nH]c1=O`: the log distribution coefficient (logD) in data set [16] was 1.44.
On to `CCOc1ccc(C=O)cc1`, for which, in data set [19], the logP is 2.09.
The compound `CC(C)=CCC1(C(C)C)C(=O)NC(=O)NC1=O` came in with a logD in [9] of 2.23.
Regarding `CC(=O)Nc1nc(NCC(O)CO)c(Cl)nc1[N+](=O)[O-]` (centres undefined), the logD in data set [20] was 0.
Consider `Cc1c(C)c(C)c(C)c(C)c1C`, for which the logP in data set [21] is 4.61.
In data set [17], `O=C(Nc1ccc(O)cc1)C(Cl)Cl` yielded a lipophilicity (logP) of 1.6.
In turn, `Nc1nc(C=Cc2ccc([N+](=O)[O-])o2)no1` came in with a logP in [1] of 1.3.
In turn, `O=C(O)Cc1ccc(Oc2cccc(Br)c2)cc1` yielded a log partition coefficient (logP) of 4.1.
The compound `COc1ccc(N(C)C(C)=O)cc1` returned a log distribution coefficient (logD) in data set [22] of 0.72.
As to `CC(=O)N(C)c1ccc(O)cc1`, the logD in data set [22] is 0.61.
For the compound `CC(C)Oc1ccc(C=O)cc1`, the lipophilicity (logP) in data set [19] is 2.3.
Compound `OCc1cc(Cl)ccc1O` yielded a logP in data set [23] of 1.44.
The compound `CCCCC(C)O` (centres undefined) registered a logP in data set [10] of 1.76.
`CS(=O)(=O)c1ccccc1`: in [7], the log distribution coefficient (logD) was 0.55.
With `OCc1cc(Cl)cc(Cl)c1O`, the logP in data set [23] is 2.3.
Take `CCCCNC(=O)Cn1cnc([N+](=O)[O-])n1`: in [18], the log distribution coefficient (logD) amounted to 0.89.
Turning to `COC(=O)C1CC(=O)N(C)C1` (centres undefined), in data set [24], the logP is -0.74.
`O=C(O)c1ccc(I)cc1` gave a lipophilicity (logP) in data set [14] of 3.13.
On to `O=Cc1ccc(F)cc1`, for which the logP in data set [13] came out at 1.54.
Regarding `CC(=O)Nc1ccc(Cl)cc1`, the logD in data set [22] worked out at 1.87.
`COc1ccccc1C=O`: the logP in data set [13] is 1.72.
Compound `Cc1cc(Br)cc(C(N)=O)c1O` displayed a log distribution coefficient (logD) in data set [11] of 2.76.
With `O=C1NC(=O)C2(CCCCCCC2)C(=O)N1`, the logD in data set [25] was found to be 1.79.
On to `Cc1cc(C)c(O)c(C)c1`, for which the logP in [21] was 2.73.
`O=C1NC(=O)C2(CCC2)C(=O)N1` returned a pH-dependent lipophilicity (logD) in data set [25] of -0.27.
For `O=[N+]([O-])c1ccc(N2CCNC2=S)o1`, the logP in data set [1] is 0.98.
Consider `CN(C(=O)C(Cl)Cl)c1ccc(OC(=O)c2ccco2)cc1`, for which, in data set [17], the logP worked out at 2.24.
`O=C(Nc1ccccc1)n1cc(F)c(=O)[nH]c1=O` registered a pH-dependent lipophilicity (logD) in data set [16] of 1.5.
Consider `CN(C)P(=O)(N(C)C)N(C)C`, for which, in [3], the logP turned out to be 0.09.
`CC1(C)C(=O)NC(=O)NC1=O`: the pH-dependent lipophilicity (logD) in data set [9] is -0.44.
The compound `Nc1nc(NCC(O)CO)c(Cl)nc1[N+](=O)[O-]` (centres undefined) gave a logD in data set [20] of -0.22.
Consider `COc1c(Cl)c(Cl)c(Cl)c(Cl)c1OC`, for which, in data set [8], the log partition coefficient (logP) was found to be 4.86.
In the case of `O=C1NC(=O)C2(CCCCCC2)C(=O)N1`, the logD in data set [25] came to 1.36.
Compound `CC(C(=O)O)c1ccc(C(=O)c2cccs2)cc1` (centres undefined) registered a lipophilicity (logP) in data set [14] of 2.83.
For `CCCCCCN1CC(C(=O)OC)CC1=O` (centres undefined), the log partition coefficient (logP) in data set [24] is 2.3.
Consider `O=Cc1ccc(Br)cc1`, for which the logP in data set [19] was 2.75.
Compound `OCc1ccccc1O` displayed a logP in [23] of 0.56.
For the compound `OCc1c(Cl)cccc1Cl`, in data set [26], the lipophilicity (logP) turned out to be 2.02.
In data set [11], `Cc1cc(Br)cc(C(=O)NC(C)C)c1O` came in with a log distribution coefficient (logD) of 4.19.
`S=c1[nH]nc(-c2ccc(Br)cc2)o1` displayed a logP in data set [15] of 3.93.
`NC(=O)c1cccc2ccccc12`: in [7], the logD was determined as 1.88.
`CC(C)C(Cl)C(=O)NC(N)=O` (centres undefined) registered a lipophilicity (logP) in data set [5] of 1.
In [26], `OCc1ccccc1Cl` gave a log partition coefficient (logP) of 1.77.
In turn, `CC(=O)Nc1nc(N2CCN(C)CC2)c(Cl)nc1[N+](=O)[O-]` displayed a log distribution coefficient (logD) in [20] of 0.5.
Take `CCCCCCCCCCCCN1CC(C(=O)O)CC1=O` (centres undefined): the logP in data set [24] came to 2.6.
`Nc1ccccc1C(=O)O`: the lipophilicity (logP) in data set [26] is 1.13.
As to `CC(C)(C)C1CCC(O)CC1` (centres undefined), the logP in data set [10] amounted to 3.09.
In turn, `Fc1ccc(CCl)cc1` displayed a logP in [21] of 2.73.
`O=C(Cn1cnc([N+](=O)[O-])n1)N1CCOCC1` gave a log distribution coefficient (logD) in [18] of -0.96.
